# Laboratory results as given in the NIST ThermoML archive (doi:10.1016/j.jct.2009.08.017).
# ± gives the expanded uncertainty stated by the source.
# Columns and labels:
# [1] = Molar enthalpy of transition or fusion; settings: Crystal; DSC
# [2] = Crystal; DTA
compound,measurement,setting,value
"Clc1ccc(C(c2ccccc2Cl)C(Cl)Cl)cc1 (configuration not stated) [1,1-dichloro-2-(2-chlorophenyl)-2-(4-chlorophenyl)ethane]",Molar enthalpy of transition or fusion,[1],6.77 ± 0.201 kcal/mol
same,Normal melting temperature,[2],80.00 ± 0.5 °C
